Patent US8198285B2, “Pyrazine derivatives” (Astrazeneca AB, priority 2010, dated 2012)
Structures can show the parent of a compound that is named as a salt.

Columns and labels:
rat bone marrow = test system: rat bone marrow
Method: 3-amino-6-(4-{3-[(3-methoxypropyl)amino]propyl}phenyl)-N-pyridin-3-ylpyrazine-2-carboxamide mono-besylate was also tested in an in vivo rat genotoxicity micronucleus study. The objective of this study was to investigate whether two oral doses of 3-amino-6-(4-{3-[(3-methoxypropyl)amino]propyl}phenyl)-N-pyridin-3-ylpyrazine-2-carboxamide mono-besylate increased the frequency of micronucleated immature erythrocytes (MIE) in rat bone marrow.
3-amino-6-(4-{3-[(3-methoxypropyl)amino]propyl}phenyl)-N-pyridin-3-ylpyrazine-2-carboxamide mono-besylate was administered to groups of 7 male Wistar Han rats, approximately 10 weeks old at dosing. Groups were given two doses of 0, 25, 125 and 250 mg/kg free-base equivalent (0, 59.5, 297 and 595 umol/kg) 24 hours apart and sampled for bone marrow analysis 24 hours after the second dose. Control rats were dosed with vehicle, 0.5% w/v hydroxypropyl methylcellulose and 0.1% w/v polysorbate 80 in phosphate buffered saline.
Animals were sacrificed 24 hours after the second dose and bone marrow smears prepared, fixed and stained with acridine orange. For each animal, 2000 immature erythrocytes (IE) were scored for the incidence of micronucleated cells (MIE) and the ratio of IE to mature erythrocytes (E) was determined in 1000 cells. In order to act as a quality control procedure, 6 slides from the bone-marrow of rats treated with cyclophosphamide at 20 mg/kg (72 umol/kg) in a previous study were included with the slides from the treated animals prior to staining and coding.

[1] = test system: β-catenin accumulation in the nucleus of murine C3H/10T1/2 cells; test: Cellular beta-catenin stabilisation assay, Test (b); format: cell-based; details: Mus musculus, 24 hours, read-out: EC50 versus cellular β-catenin accumulation in the nucleus of murine C3H/10T1/2 cells
Method: This assay uses an imaging based approach to measure the ability of test compounds to promote Beta-catenin stabilisation in the nucleus of C3H10T1/2 cells. Beta-catenin stabilisation is an indicator of GSK3β inhibition.
A C3H10T1/2 mouse clone 8 fibroblast cell line (American Type Culture Collection (ATCC, USA; catalogue number CRL 226) was routinely maintained at 37° C. with 5% CO2 in Basal Medium Eagle (BME, Invitrogen; Paisley, UK; catalogue number 41010) containing 10% (v/v) foetal bovine serum (FBS, Invitrogen, Paisley; UK; catalogue number 10270) and 2 mM L-glutamine (Invitrogen, Paisley, UK; catalogue number 25030024). For the assay, the cells were detached from the culture flask with ‘Accutase’ (Innovative Cell Technologies Inc., San Diego, USA; catalogue number AT104) using standard tissue culture methods and re-suspended in assay media comprising of BME containing 5% (v/v) FBS and 2 mM L-glutamine to give 55,555 cells per ml. Then, 90 μl of this solution was seeded into each well of a clear-bottom 96 well tissue culture plate (Perkin Elmer Viewplate; catalogue number 6005182) using a Multidrop Combi Dispenser (Thermo Fisher Scientific, Loughborough, UK) to give 5,000 cells per well. Plates were incubated overnight at 37° C. with 5% CO2 to allow the cells to adhere to the wells. Test compounds were prepared as 10 mM stock solutions in dimethylsulphoxide (DMSO) (Sigma-Aldrich; Poole, UK, catalogue number 49442-9) and serially diluted in DMSO. A Multidrop Combi was used to dispense 245 μl of pre-warmed assay media into a 96 well plate (Thermo Fisher Scientific, Loughborough, UK; catalogue number 50823925) before 5 μl of serially diluted compound was added to this intermediate plate. After mixing, 10 μl of each compound concentration was added to the cell plates. The total dilution factor from DMSO stock was 500 times. Control cells received either DMSO (0.2% v/v final concentration) or 10 μM positive control compound. The cells were incubated for 24 hours at 37° C. with 5% CO2.
After compound treatment the cells were fixed by the addition of 100 μl of 8% w/v paraformaldehyde (Sigma-Aldrich, Poole, UK; catalogue number P6148), directly into the assay plate wells. The cells were incubated at ambient temperature with fixative for 30 minutes before washing 3 times with 100 μl phosphate-buffered saline (PBS, Sigma-Aldrich; catalogue number D8537). […] The cells were then washed 3 times in 100 μl of PBS before the plates were sealed ready for image capture. Fluorescent images were captured and quantified using the Incell Analyser 3000 (GE Healthcare, USA). […]

human GSK3β enzyme = target: T1, human GSK3β enzyme (Homo sapiens, UniProt P49841); test: In vitro GSK3β kinase assay (FRET, Z'-LYTE), Test (a); format: biochemical; details: read-out: IC50 versus human GSK3β enzyme
T1 construct: His6 (N); purchased Millipore 14-306; host or cells: baculovirus / Sf21 insect cells
T1 sequence (P49841 whole entry): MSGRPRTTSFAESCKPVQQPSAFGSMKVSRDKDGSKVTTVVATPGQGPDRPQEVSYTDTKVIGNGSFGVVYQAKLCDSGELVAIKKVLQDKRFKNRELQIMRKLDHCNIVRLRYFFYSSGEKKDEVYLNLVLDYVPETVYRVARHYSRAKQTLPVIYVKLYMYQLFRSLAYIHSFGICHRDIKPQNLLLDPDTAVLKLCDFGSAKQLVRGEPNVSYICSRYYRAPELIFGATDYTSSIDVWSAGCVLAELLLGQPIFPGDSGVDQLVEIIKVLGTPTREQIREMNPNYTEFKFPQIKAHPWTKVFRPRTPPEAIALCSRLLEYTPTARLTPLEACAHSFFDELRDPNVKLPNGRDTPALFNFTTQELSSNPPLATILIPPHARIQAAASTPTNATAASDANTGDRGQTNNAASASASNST
Excerpt: This biochemical assay used a Fluorescence Resonance Energy Transfer (FRET)-based, coupled-enzyme format to determine the ability of test compounds to inhibit substrate phosphorylation by recombinant GSK3β serine/threonine kinase (Kleman-Leyer, K. et al. Drug Disc. Devel. 2003, 6:81-2). The substrate used in this assay was Z′-LYTE™ ser/Thr 9 peptide and the FRET assay kit was obtained from Invitrogen (Paisley, UK, catalogue number PV3324). N-terminal His6-tagged recombinant human GSK313, with an H350 L mutation, was expressed in baculovirus in Sf21 insect cells, purified and obtained from Millipore (Billerica, Mass., USA, catalogue number 14-306 Human).
Test compounds were prepared as 10 mM stock solutions in dimethylsulphoxide (DMSO) and diluted in DMSO as required. Aliquots (2.5 μl) of compound dilutions were added to the wells of an Optiplate-F PerkinElmer 384-well plate (Massachusetts, USA, catalogue number 6007270). Control wells that produced a maximum signal corresponding to maximum enzyme activity were created by using 100% phosphorylated peptide obtained from Invitrogen (Paisley, UK, catalogue number PV3326). A 5 μl aliquot of 100% phosphorylated peptide (100 μM in 1.33× kinase buffer) was added to all maximum control wells. 2.5 μl of 4% DMSO solution (v/v) in 1.33× kinase buffer was added to maximum control wells. Control wells that produced a minimum signal corresponding to 100% inhibited enzyme were created by adding 2.5 μl of 40 μM Staurosporine in 1.33× kinase buffer containing 4% DMSO (v/v). A 5 μl mixture of GSK3β (100 ng/μl) enzyme and non-phosphorylated substrate (Z-LYTE™ ser/Thr 9 peptide, 100 μM) in a 1.33× kinase buffer solution was added to each well except maximum control wells and the assay plate centrifuged at 270 g for 1 minute. The kinase buffer used 1.33× was obtained from Invitrogen (Paisley, UK, catalogue number PV3189) and contained 67 mM HEPES (pH 7.5), 13 mM MgCl2, 1.3 mM EGTA, 0.01% BRIJ-35. Then 2.5 μl adenosine triphosphate (28 μM) in kinase buffer was added per well, centrifuged at 270 g for 1 minute and then the assay plate was shaken for 1 hour at room temperature. A proprietary development solution was prepared by adding 58 μl of development reagent A (Invitrogen, Paisley, UK, catalogue number PV3297) to 2142 μl of development reagent B (Invitrogen, Paisley, UK, catalogue number P3127). […]
The resultant signals arising from laser light excitation at 400 nm were read using a Perkin Elmer Envision spectrophotometer (Perkin Elmer, Massachusetts, USA). […] A ratiometric method, which calculates the ratio (the Emission Ratio) of donor emission to acceptor emission after excitation of the donor fluorophore at 400 nm, quantitates reaction progress, as shown in the equation below. […]

Row | EC50 [1] [nM] | IC50 (human GSK3β enzyme) [nM] | Compound | Maximum tolerated dose (highest dose) (rat bone marrow; two oral doses 24 hours apart, male Wistar Han rats) | Incidence of micronucleated immature erythrocytes (MIE) above the vehicle control (rat bone marrow; two oral doses up to 250 mg/kg free-base equivalent 24 hours apart, bone marrow 24 hours after second dose) | Incidence of MIE compared with the vehicle control values (rat bone marrow; quality control slides, rats given 20 mg/kg in a previous study)
1 | ~3890 | ~80 | COCCNCCc1ccc(-c2cnc(N)c(C(=O)Nc3cccnc3)n2)cc1 [Example 7, 3-Amino-6-(4-{2-[(2-methoxyethyl)amino]ethyl}phenyl)-N-pyridin-3-ylpyrazine-2-carboxamide tri-hydrochloride] | – | – | –
2 | ~902 | ~48 | COCCCNCCc1ccc(-c2cnc(N)c(C(=O)Nc3cccnc3)n2)cc1 [Example 6, 3-Amino-6-(4-{2-[(3-methoxypropyl)amino]ethyl}phenyl)-N-pyridin-3-ylpyrazine-2-carboxamide] | – | – | –

Second part, the compound before the results:

Row | Compound | EC50 [1] [nM] | IC50 (human GSK3β enzyme) [nM] | Maximum tolerated dose (highest dose) (rat bone marrow; two oral doses 24 hours apart, male Wistar Han rats) | Incidence of micronucleated immature erythrocytes (MIE) above the vehicle control (rat bone marrow; two oral doses up to 250 mg/kg free-base equivalent 24 hours apart, bone marrow 24 hours after second dose) | Incidence of MIE compared with the vehicle control values (rat bone marrow; quality control slides, rats given 20 mg/kg in a previous study)
3 | COCCCNCCCc1ccc(-c2cnc(N)c(C(=O)Nc3cccnc3)n2)cc1.O=S(=O)(O)c1ccccc1 [3-amino-6-(4-{3-[(3-methoxypropyl)amino]propyl}phenyl)-N-pyridin-3-ylpyrazine-2-carboxamide mono-besylate] | – | – | 250 mg/kg free-base equivalent | no biologically or statistically significant increases | –
4 | O=P1(N(CCCl)CCCl)NCCCO1 (stereo not drawn) [cyclophosphamide, reference compound] | – | – | – | – | significantly increased
5 | COCCNCCCc1ccc(-c2cnc(N)c(C(=O)Nc3cccnc3)n2)cc1 [Example 5, 3-Amino-6-(4-{3-[(2-methoxyethyl)amino]propyl}phenyl)-N-pyridin-3-ylpyrazine-2-carboxamide tri-hydrochloride] | ~902 | ~21 | – | – | –
